This is an account of results in US20150289512A1, “METHOD FOR PROMOTING PLANT GROWTH” (SUMITOMO CHEMICAL COMPANY, LIMITED, priority 2012, published 2015).

Molecules are shown by their SMILES.

The first assay concerns Corn seeds (variety: Pioneer 120 31P41). The assay can be described thus: Test Example 14: growth promotion under low-temperature stress by soil drench treatment of corn. The format is in vivo. To be noted: Zea mays, 120 h; soil drench 20 ml, concentration tested 3 ppm; low-temperature stress 5 days at 2.5° C.; health score 0-5, average of 4 individuals; read-out: Relative value of score (%- untreated control plot). In a few lines:
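7-day-old corn seedlings soil-drenched with 20 ml compound solution (from 1,000× DMSO stock in water; control 0.1% DMSO), grown 2 days at 27 °C, then 5 days at 2.5 °C, then 4 days recovery at 27 °C. Health scored 1–5 by number of leaves ≥⅔ healthy; mean of 4 plants.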
With `COC(=O)c1nc2cc(C(F)(F)F)ccc2o1` [Compound 17, methyl 5-trifluoromethylbenzoxazole-2-carboxylate], the change in vivo at 3 ppm is above 5%.

The same assay, now with this note: Zea mays, 120 h; soil drench 20 ml, concentration tested 10 ppm; low-temperature stress 5 days at 2.5° C.; health score 0-5, average of 4 individuals; read-out: Relative value of score (%- untreated control plot).
Turning to `COC(=O)c1cc2ccccc2o1` [Compound 1], the change in vivo at 10 ppm was above 5%.
Turning to `COC(=O)c1cc2cc(C(F)(F)F)ccc2o1` [Compound 3, methyl 5-(trifluoromethyl)benzofuran-2-carboxylate], the change in vivo at 10 ppm was above 5%.
The same measure, in the same setting: the value for `Cc1c(C(=O)O)oc2ccc(C(F)(F)F)cc12` [Compound 34] was above 5%.
Regarding `COC(=O)c1cc2c(C(F)(F)F)cccc2o1` [Compound 45], the change in vivo at 10 ppm was above 5%.
Regarding `COC(=O)c1oc2ccc(C(F)(F)F)cc2c1O` [Compound 50], the change in vivo at 10 ppm is above 5%.
As for `O=C(O)c1oc2ccccc2c1C(F)(F)F` [Compound 82], the change in vivo at 10 ppm was above 5%.
On the same count and under the same terms, the value for `NC(=O)c1oc2ccccc2c1C(F)(F)F` [Compound 85] was above 5%.
